Data as given in patent publication US20240228489A1, “POSITIVE ALLOSTERIC MODULATORS OF THE MUSCARINIC ACETYLCHOLINE RECEPTOR M1” (Vanderbilt University, priority 2021, published 2024).
pEC50: −log10 of the molar value.

Columns and labels:
human mAChR M1 [1] = biological target: T1, human mAChR M1 (Homo sapiens, UniProt P11229); assay: mAChR M1 cell-based functional assay (calcium mobilization), PAM mode: increase in the EC20 acetylcholine response
T1 sequence (P11229 1-460): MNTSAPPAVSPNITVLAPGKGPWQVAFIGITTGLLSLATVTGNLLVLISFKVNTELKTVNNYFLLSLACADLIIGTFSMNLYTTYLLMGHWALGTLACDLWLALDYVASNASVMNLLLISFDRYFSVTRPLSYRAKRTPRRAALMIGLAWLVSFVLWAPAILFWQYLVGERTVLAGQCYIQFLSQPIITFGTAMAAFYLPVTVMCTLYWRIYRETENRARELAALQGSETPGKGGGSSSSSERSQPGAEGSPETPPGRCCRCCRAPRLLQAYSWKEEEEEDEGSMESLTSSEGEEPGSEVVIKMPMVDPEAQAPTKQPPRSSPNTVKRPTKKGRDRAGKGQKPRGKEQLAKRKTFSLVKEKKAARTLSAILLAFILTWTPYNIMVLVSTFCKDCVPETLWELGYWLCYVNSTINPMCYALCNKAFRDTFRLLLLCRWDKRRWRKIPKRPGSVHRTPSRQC
How it was run: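 CHO-K1 cells stably expressing hM1, Fluo-4 loaded, read by FDSS calcium flux at 1 Hz. Compound (11-point 1:3 CRC) added at 4 s, EC20 acetylcholine at 144 s, EC80 at 230 s. PAM activity taken as concentration-dependent increase in EC20 ACh response, fitted by four-parameter logistic for EC50/Emax.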

human mAChR M1 [2] = biological target: T1, human mAChR M1; assay: mAChR M1 cell-based functional assay (calcium mobilization), agonist mode: compound alone, Emax relative to acetylcholine maximum; conditions: for pEC50 / Agonist Activity Human M1 EC50: human mAChR M1; for Emax: relative to the maximum for acetylcholine
How it was run: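 CHO-K1 cells stably expressing hM1 were loaded with Fluo-4 AM, and calcium flux was read as fluorescence ratio. Compound was added alone from an 11-point 1:3 curve, and the agonist response was fitted with a four-parameter logistic. Emax is expressed relative to the acetylcholine maximum.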

SMILES | pEC50 (human mAChR M1 [1]) | Emax (human mAChR M1 [1]) [%] | pEC50 (human mAChR M1 [2]) | Emax (human mAChR M1 [2]) [%] | Agonist Activity Human M1 EC50 (human mAChR M1 [2])
[2H]C1([2H])c2ncccc2C(=O)N1Cc1ccc(-c2ccc(OCCOC(C)C)c3nn(C)cc23)cc1F [Compound 153, 6-(2-fluoro-4-(7-(2-isopropoxyethoxy)-2-methyl-2H-indazol-4-yl)benzyl)-6,7-dihydro-5H-pyrrolo[3,4-b]pyridin-5-one-7,7-d2] | 5.87 | 79 | ≤ 5.00 | 15 | –
[2H]C1([2H])c2ncccc2C(=O)N1Cc1ccc(-c2ccc(OCCOC3CC3)c3nn(C)cc23)cc1F [Compound 154, 6-(4-(7-(2-cyclopropoxyethoxy)-2-methyl-2H-indazol-4-yl)-2-fluorobenzyl)-6,7-dihydro-5H-pyrrolo[3,4-b]pyridin-5-one-7,7-d2] | 5.96 | 77 | ≤ 5.00 | 17 | –
[2H]C1([2H])c2ncccc2C(=O)N1Cc1c(C)cc(-c2ccc(C)c3nn(C([2H])([2H])[2H])cc23)cc1F [Compound 157, 6-(2-fluoro-6-methyl-4-(7-methyl-2-(methyl-d3)-2H-indazol-4-yl)benzyl)-6,7-dihydro-5H-pyrrolo[3,4-b]pyridin-5-one-7,7-d2] | 6.34 | 81 | ≤ 5.00 | 16 | –
[2H]C1([2H])c2ncccc2C(=O)N1Cc1c(C)cc(-c2ccc(F)c3nn(C([2H])([2H])[2H])cc23)cc1F [Compound 158, 6-(2-fluoro-4-(7-fluoro-2-(methyl-d3)-2H-indazol-4-yl)-6-methylbenzyl)-6,7-dihydro-5H-pyrrolo[3,4-b]pyridin-5-one-7,7-d2] | 6.42 | 80 | – | 6 | Inactive
[2H]C1([2H])c2ncccc2C(=O)N1Cc1c(C)cc(-c2ccc(OC)c3nn(C([2H])([2H])[2H])cc23)cc1F [Compound 159, 6-(2-fluoro-4-(7-methoxy-2-(methyl-d3)-2H-indazol-4-yl)-6-methylbenzyl)-6,7-dihydro-5H-pyrrolo[3,4-b]pyridin-5-one-7,7-d2] | 6.79 | 83 | 5.20 | 31 | –
[2H]C1([2H])c2ncccc2C(=O)N1Cc1c(C)cc(-c2ccc3nn(C([2H])([2H])[2H])cc3c2)cc1F [Compound 160, 6-(2-fluoro-6-methyl-4-(2-(methyl-d3)-2H-indazol-5-yl)benzyl)-6,7-dihydro-5H-pyrrolo[3,4-b]pyridin-5-one-7,7-d2] | 6.40 | 83 | ≤ 5.00 | 13 | –
[2H]C1([2H])c2ncccc2C(=O)N1Cc1c(F)cc(-c2cccc3nn(C([2H])([2H])[2H])cc23)cc1Cl [Compound 161, 6-(2-chloro-6-fluoro-4-(2-(methyl-d3)-2H-indazol-4-yl)benzyl)-6,7-dihydro-5H-pyrrolo[3,4-b]pyridin-5-one-7,7-d2] | 6.45 | 81 | – | 6 | Inactive
[2H]C1([2H])c2ncccc2C(=O)N1Cc1c(F)cc(-c2ccc(C)c3nn(C)cc23)cc1Cl [Compound 162, 6-(2-chloro-4-(2,7-dimethyl-2H-indazol-4-yl)-6-fluorobenzyl)-6,7-dihydro-5H-pyrrolo[3,4-b]pyridin-5-one-7,7-d2] | 6.36 | 81 | – | 2 | Inactive
[2H]C1([2H])c2ncccc2C(=O)N1Cc1c(F)cc(-c2ccc(OC)c3nn(C)cc23)cc1Cl [Compound 163, 6-(2-chloro-6-fluoro-4-(7-methoxy-2-methyl-2H-indazol-4-yl)benzyl)-6,7-dihydro-5H-pyrrolo[3,4-b]pyridin-5-one-7,7-d2] | 6.62 | 81 | – | 3 | Inactive
[2H]C1([2H])c2ncccc2C(=O)N1Cc1c(F)cc(-c2ccc(F)c3nn(C)cc23)cc1Cl [Compound 164, 6-(2-chloro-6-fluoro-4-(7-fluoro-2-methyl-2H-indazol-4-yl)benzyl)-6,7-dihydro-5H-pyrrolo[3,4-b]pyridin-5-one-7,7-d2] | 6.32 | 82 | – | 3 | Inactive
[2H]C1([2H])c2ncccc2C(=O)N1Cc1c(F)cc(-c2ccnc3nn(C)cc23)cc1Cl [Compound 165, 6-(2-chloro-6-fluoro-4-(2-methyl-2H-pyrazolo[3,4-b]pyridin-4-yl)benzyl)-6,7-dihydro-5H-pyrrolo[3,4-b]pyridin-5-one-7,7-d2] | 6.19 | 93 | ≤ 5.00 | 16 | –
[2H]C1([2H])c2ncccc2C(=O)N1Cc1c(F)cc(-c2cccc3nn(C)cc23)cc1Cl [Compound 166, 6-(2-chloro-6-fluoro-4-(2-methyl-2H-indazol-4-yl)benzyl)-6,7-dihydro-5H-pyrrolo[3,4-b]pyridin-5-one-7,7-d2] | 6.50 | 82 | – | 5 | Inactive
[2H]C1([2H])c2ncccc2C(=O)N1Cc1c(F)cc(-c2ccc3nn(C)cc3c2)cc1Cl [Compound 167, 6-(2-chloro-6-fluoro-4-(2-methyl-2H-indazol-5-yl)benzyl)-6,7-dihydro-5H-pyrrolo[3,4-b]pyridin-5-one-7,7-d2] | 6.59 | 85 | – | 2 | Inactive
[2H]C1([2H])c2ncccc2C(=O)N1Cc1c(F)cc(-c2cnc3nn(C)cc3c2)cc1Cl [Compound 168, 6-(2-chloro-6-fluoro-4-(2-methyl-2H-pyrazolo[3,4-b]pyridin-5-yl)benzyl)-6,7-dihydro-5H-pyrrolo[3,4-b]pyridin-5-one-7,7-d2] | 5.83 | 86 | – | 6 | Inactive
[2H]C1([2H])c2ncccc2C(=O)N1Cc1c(F)cc(-c2ccc(OC3CC3)c3nn(C)cc23)cc1Cl [Compound 169, 6-(2-chloro-4-(7-cyclopropoxy-2-methyl-2H-indazol-4-yl)-6-fluorobenzyl)-6,7-dihydro-5H-pyrrolo[3,4-b]pyridin-5-one-7,7-d2] | 6.20 | 81 | – | 7 | Inactive
[2H]C1([2H])c2ncccc2C(=O)N1Cc1c(F)cc(-c2ccc(OCCOC)c3nn(C)cc23)cc1Cl [Compound 170, 6-(2-chloro-6-fluoro-4-(7-(2-methoxyethoxy)-2-methyl-2H-indazol-4-yl)benzyl)-6,7-dihydro-5H-pyrrolo[3,4-b]pyridin-5-one-7,7-d2] | 6.49 | 81 | – | 9 | Inactive
[2H]C1([2H])c2ncccc2C(=O)N1Cc1c(F)cc(-c2ccc(O[C@@H](C)COC)c3nn(C)cc23)cc1F [Compound 171, (S)-6-(2,6-difluoro-4-(7-((1-methoxypropan-2-yl)oxy)-2-methyl-2H-indazol-4-yl)benzyl)-6,7-dihydro-5H-pyrrolo[3,4-b]pyridin-5-one-7,7-d2] | 6.47 | 81 | ≤ 5.00 | 31 | –
[2H]C1([2H])c2ncccc2C(=O)N1Cc1c(F)cc(-c2ccc(OC[C@@H](C)OC)c3nn(C)cc23)cc1F [Compound 172, (R)-6-(2,6-difluoro-4-(7-(2-methoxypropoxy)-2-methyl-2H-indazol-4-yl)benzyl)-6,7-dihydro-5H-pyrrolo[3,4-b]pyridin-5-one-7,7-d2] | 6.45 | 82 | ≤ 5.00 | 27 | –
[2H]C1([2H])c2ncccc2C(=O)N1Cc1c(F)cc(-c2ccc(OC3CN(C(=O)OC(C)(C)C)C3)c3nn(C)cc23)cc1F [Compound 173, tert-butyl 3-((4-(3,5-difluoro-4-((5-oxo-5,7-dihydro-6H-pyrrolo[3,4-b]pyridin-6-yl-7,7-d2)methyl)phenyl)-2-methyl-2H-indaazol-7-yl)oxy)azetidine-1-carboxylate] | 5.87 | 82 | – | 2 | Inactive
[2H]C1([2H])c2ncccc2C(=O)N1Cc1c(F)cc(-c2ccc(OCC3(C#N)CC3)c3nn(C)cc23)cc1F [Compound 174, 1-(((4-(3,5-difluoro-4-((5-oxo-5,7-dihydro-6H-pyrrolo[3,4-b]pyridin-6-yl-7,7-d2)methyl)phenyl)-2-methyl-2H-indazol-7-yl)oxy)methyl)cyclopropane-1-carbonitrile] | 6.71 | 86 | 5.09 | 26 | –
[2H]C1([2H])c2ncccc2C(=O)N1Cc1ccc(-c2ccc(OC[C@@H](C)OC)c3nn(C)cc23)cc1F [Compound 175, (R)-6-(2-fluoro-4-(7-(2-methoxypropoxy)-2-methyl-2H-indazol-4-yl)benzyl)-6,7-dihydro-5H-pyrrolo[3,4-b]pyridin-5-one-7,7-d2] | 6.08 | 86 | ≤ 5.00 | 12 | –
